Where “and” joins values, the source holds several entries; their conditions need not be identical. Equal entries are not always repeated. Entries after “also recorded” stand apart in the source; their conditions may differ.
Experiments:
[1] = Plasma ionised Ca2+ in BalbC mice after nebulised calcilytic treatment; assay type: in vivo, mouse
Protocol: Table 1. […] At the end of the experiment, bloods were collected via opening the carotid artery. Bloods were allowed to clot for 2-3 hours and spun down at 3000 g for 10 min at 4° C. Collected samples were analysed for measurements of Ca^2+o (performed by the Biochemistry department, University Hospital of Wales). […] Accordingly, the treatment is not detrimental in mammals.

human CaSR = molecular target: T1, human CaSR (Homo sapiens, UniProt P41180); assay: Intracellular Ca2+ (fura-2, F/F0) in HEK293 cells stably expressing human CaSR; assay type: cell-based; settings: 100 nM calcilytic, HEK-CaSR
T1 construct: expressed in transfected cells; control HEK-0 with empty vector
T1 sequence (P41180 20-1078): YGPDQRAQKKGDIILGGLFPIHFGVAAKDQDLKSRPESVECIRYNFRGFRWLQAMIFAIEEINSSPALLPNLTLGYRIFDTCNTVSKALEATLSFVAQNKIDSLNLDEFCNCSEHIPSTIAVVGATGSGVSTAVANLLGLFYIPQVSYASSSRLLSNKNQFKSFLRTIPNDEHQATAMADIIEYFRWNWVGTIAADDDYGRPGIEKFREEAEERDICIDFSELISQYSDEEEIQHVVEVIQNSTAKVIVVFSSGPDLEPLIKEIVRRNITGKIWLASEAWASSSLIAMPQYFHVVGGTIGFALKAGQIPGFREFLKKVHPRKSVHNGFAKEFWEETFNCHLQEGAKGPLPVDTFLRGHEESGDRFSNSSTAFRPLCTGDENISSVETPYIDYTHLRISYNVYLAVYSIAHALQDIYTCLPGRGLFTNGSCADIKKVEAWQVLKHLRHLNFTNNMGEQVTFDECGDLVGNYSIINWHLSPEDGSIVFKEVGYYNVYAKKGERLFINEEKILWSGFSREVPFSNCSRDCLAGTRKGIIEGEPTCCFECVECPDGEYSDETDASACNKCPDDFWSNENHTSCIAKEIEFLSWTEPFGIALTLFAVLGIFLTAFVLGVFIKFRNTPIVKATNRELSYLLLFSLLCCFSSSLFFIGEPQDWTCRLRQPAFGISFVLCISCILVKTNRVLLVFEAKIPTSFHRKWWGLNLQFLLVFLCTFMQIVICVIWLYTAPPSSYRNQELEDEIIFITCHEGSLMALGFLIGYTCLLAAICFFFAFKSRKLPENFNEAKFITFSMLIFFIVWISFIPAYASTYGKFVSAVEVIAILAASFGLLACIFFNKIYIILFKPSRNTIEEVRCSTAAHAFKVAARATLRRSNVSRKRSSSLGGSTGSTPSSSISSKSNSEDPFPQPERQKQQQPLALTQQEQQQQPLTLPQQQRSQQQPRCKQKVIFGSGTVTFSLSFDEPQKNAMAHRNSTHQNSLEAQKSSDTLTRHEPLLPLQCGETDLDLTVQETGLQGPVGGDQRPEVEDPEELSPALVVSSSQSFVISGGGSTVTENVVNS
Protocol: The structurally unrelated calcilytic NPS2143 also prevents spermine-induced CaSR activation (D). […] Note that ECP serum concentrations in asthmatic subjects are believed to be 30 μg/ml. n=121-487 cells, 3-9 experiments. Data are mean±SEM. Where differences are significant, they are shown above the bars. FIG. 6. Ca^2+o activates the CaSR, an effect which can be prevented by the calcilytic NPS89636. HEK293 cells stably expressing the human CaSR (HEK-CaSR) or transfected with empty vector (HEK-0) were loaded with 4 μM fura-2 AM and exposed to 5 mM Ca^2+o in the absence or presence of the calcilytic, NPS89636 (100 nM). Data are from >3 experiments and 121-386 cells. Significant differences are shown above the bars. […] The ability of a structurally unrelated calcilytic, NPS2143 (1-10 μM), was also tested on spermine-induced Ca^2+i mobilisation in HEK-CaSR. Ca^2+i release was measured as peak/baseline fluorescence (F/F0). Note that ECP serum concentrations in asthmatic subjects increase with disease severity and are believed to reach 30 μg/ml.

Plasma ionised Ca++, Treatment (1 hour), individual animal ([1]; 1 hour after nebulised calcilytic, single animals, hydrochloride): 0.69 mM/L and 0.88 mM/L and 0.95 mM/L | Plasma ionised Ca++, Treatment (1 hour), Average ([1]; 1 hour, average of 3): 0.84 mM/L | Plasma ionised Ca++, Treatment (4 hours), individual animal ([1]; 4 hours after nebulised calcilytic, single animals, hydrochloride): 0.98 mM/L and 0.94 mM/L and 0.96 mM/L | Plasma ionised Ca++, Treatment (4 hours), Average ([1]; 4 hours, average of 3): 0.96 mM/L | Plasma ionised Ca++, Treatment (24 hours), individual animal ([1]; 24 hours after nebulised calcilytic, single animals, hydrochloride): 1.09 mM/L and 1.1 mM/L and 0.93 mM/L | Plasma ionised Ca++, Treatment (24 hours), Average ([1]; 24 hours, average of 3): 1.04 mM/L | Effect of calcilytic on Ca2+i increase evoked by 5 mM Ca2+o (human CaSR): blocked
Compound: CCc1ccc(CC(C)(C)NCC(O)COc2cc(-c3ccc(C(=O)O)cc3)ccc2C#N)c(F)c1.Cl (stereo in doubt) [NPS89636, (S)-4′-cyano-3′-[3-[2-(4-ethyl-2-fluorophenyl)-1,1-dimethylethylamino]-2-hydroxy-propoxy]-biphenyl-4-carboxylic acid hydrochloride]
Effect of calcilytic on polycation-evoked Ca2+i release (F/F0) (human CaSR; 300 nM poly-L-arginine, 1 mM spermine or 10 μg/ml ECP, hydrochloride): completely eliminated; also recorded: significantly reduced

— patent publication US9861606B2, “Therapeutic for treating inflammatory lung disorders” (University College Cardiff Consultants Limited, priority 2012, dated 2018)
